System: female NMRI mice
Assay: Anorectic effect: reduction in cumulative milk consumption after oral administration (gavage) to fasted mice
Type: in vivo
Conditions: oral dose 30 mg/kg by gavage, after withdrawal of food for 17 hours, condensed milk consumption over 7 hours, compared with vehicle-treated control
Protocol: The anorectic effect was tested on female NMRI mice. After withdrawal of food for 17 hours, the test product was administered by gavage. The animals were housed singly with free access to drinking water and were offered condensed milk 30 minutes after administration of the product. The condensed milk consumption was determined every half hour for 7 hours, and the general wellbeing of the animals was observed. The measured milk consumption was compared with the vehicle-treated control animals.

Row | SMILES | Reduction in the cumulative milk consumption as % of the control [%]
1 | CC(=O)N(C)[C@@H]1CCN(c2ccc(NC(=O)Nc3ccc(Oc4ccccc4)cc3)cc2)C1 [Example 4, (R)-N-Methyl-N-(1-{4-[3-(4-phenoxyphenyl)ureido]phenyl}pyrrolidin-3-yl)acetamide] | 50
2 | CC(=O)N(C)C1CCN(c2ccc(NC(=O)N3CCC(c4ccc(Cl)cc4)CC3)cc2)C1 (centres unmarked) [Example 13, 4-(4-Chlorophenyl)piperidine-1-carboxylic acid {4-[3-(acetylmethylamino)-pyrrolidin-1-yl]phenyl}amide] | 64

Reference: US7223788B2, “Substituted N-aryl heterocycles, process for their preparation and their use as medicaments” (Sanofi-Aventis Deutschland GmbH, priority 2003, dated 2007)
